Assay results reported in patent US8252532B2 (University of Connecticut, priority 2006, dated 2012).

Key:
Ovcar-3 cells = assay: Apoptotic nuclei in Ovcar-3 cells (DAPI staining); type: cell-based, human; conditions: for effect on CDDP-induced apoptosis: simultaneous treatment with CDDP
Description: In order to assess the effects of CDDP, P4 and PGRMC1's role in regulating the viability of ovarian cancer cells, Ovcar-3 cells were used. Ovcar-3 cells were maintained in culture as described by Kim et al (23). Briefly, Ovcar-3 cells were cultured in RPMI-1640 medium (Invitrogen, Grand Island, N.Y.) supplemented with 10% fetal bovine serum (HyClone, Logan, Utah), 100 U/ml penicillin G, 100 ug/ml streptomycin (Invitrogen, Grand Island, N.Y.), at 37° C. in a humidified atmosphere of 5% CO2 incubator. The Ovcar-3 cells were cultured for 72 hours before each experiment.
PGRMC1 siRNA treatment was used to deplete PGRMC1 levels (28). In this protocol, PGRMC1 depletion was performed by transfecting PGRMC1 siRNA using siPORT NeoFX transfection protocol outlined by Ambion. Studies were conducted in which either scramble (control) siRNA (Cat#: AM4611) or one of three pre-designed human PGRMC1 siRNAs (Ambion siRNA ID#: 18430, 18340, 18248) were transfected at a concentration of 30 nM. Levels of PGRMC1 mRNA and protein were assessed by real-time PCR and western blot, respectively as previously described. In addition and immunocytochemical analysis confirmed that PGRMC1 siRNA (ID#: 18248) was an effective PGRMC1 siRNA. This siRNA targeted Exon 1 of PGRMC1 (forward, 5′-[…]tt and reverse, 5′-[…]tt). Based on this, Ovcar-3 cells were cultured for 3 days and then treated for 3 days with either scramble or PGRMC1 siRNA (ID#: 18248). The cells were then treated for 24 h with CDDP (15 μM) and P4 (1 μM) and observed apoptosis as described below.
Finally, a blocking antibody study was conducted as previously described (25). Ovcar-3 were plated and cultured for 3 days as previously described. The cells were then washed and cultured for 24 h with serum-supplemented containing CDDP (15 μM) and P4 (1 μM) and either rabbit IgG (20 μg/ml) or the antibody to PGRMC1 (20 μg/ml). After culture the cells were rinsed in Krebs/Hepes buffer and stained to detect apoptotic nuclei as described below.
Regardless of the experimental design, in situ DNA staining was used to identify apoptotic nuclei by adding DAPI directly to the culture medium at a final concentration of 2 μg/ml. The cultures were incubated for 10 min at 37° C. in the dark. After staining, the cells were observed under epi-fluorescent optics. Under these conditions only cells with condensed or fragmented nuclei were stained intensely with DAPI. The DAPI-stained cells also stained with YOPRO-1, a well-known nuclear stain that identifies apoptotic cells (19, 25, 28). These cells were considered to be apoptotic (25). At least 100 cells/culture well were counted and the percentage of apoptotic nuclei in each well determined. For the data shown in FIGS. 12 and 15, cells were selected randomly. In FIG. 6 the apoptotic status (i.e. DAPI staining; blue fluorescence) was determined for 100 transfected cells per well as indicated by their GFP (i.e. green) fluorescence.

[1] = tested on: human granulosa/luteal cells; assay: Apoptotic nuclei in human granulosa/luteal cells after serum withdrawal (TUNEL, in situ DNA staining); type: cell-based
Description: After the oocytes were removed, follicular aspirates were pooled and centrifuged at 250×g for 10 minutes. The cell pellet was resuspended in serum-free culture medium, layered on HISTOPAQUE-1077 and centrifuged for 30 minutes at 400×g. After centrifugation, the opaque interface containing the granulosa/luteal cells was carefully aspirated and transferred into a 15 ml sterile conical centrifuge tube. The cells were then washed by resuspending the cells in 12 ml of PBS and centrifuging them at 250×g for 10 minutes. This was repeated two additional times. The cell pellet was then resuspended in 1 ml of 0.25% trypsin-EDTA solution and incubated for 5 minutes to dissociate the cells. After trypsinization, 5 ml of serum-supplemented medium was added and the cells were centrifuged at 250×g for 10 minutes. The cells were then resuspended in serum-supplemented medium, counted in a hemacytometer and resuspended to yield a final concentration 1 million cells/ml.
Plastic lab-tek slides (BD Bioscience, Bedford, Mass.), which had been previously coated with Growth Factor Reduced Matrigel Matrix (BD Bioscience, Bedford, Mass.), were plated at about 60,000 cells per well in 0.5 ml of serum-supplemented medium with 2 U/ml (IU) of hCG. The medium was changed after 24 hours to remove any remaining blood cells or non-attached granulosa/luteal cells and the cultures continued for two additional days. The cultures were then subjected to the various experimental treatments as outlined below.
Both TUNEL and in situ DNA staining were used to identify apoptotic nuclei. For the TUNEL assay human granulosa/luteal cells were cultured for 5 hours in serum-free medium and then fixed in 10% formalin. The cells were stained using the Apoptag Peroxidase In Situ kit staining according to manufacture's instructions (Chemicon, Temecula, Calif.). In situ DNA staining was done by adding hydroethidine directly to the culture medium at a final concentration of 3.5 μg/ml. The cultures were incubated for 15 minutes at room temperature in the dark. After staining, the cells observed under epi-fluorescent optics. Under these conditions only cells with condensed or fragmented nuclei were stained intensely with hydroethidine. These cells were considered to be apoptotic in accordance with prior publications in the field. At least 100 cells/culture well were counted and the percentage of apoptotic nuclei in each well determined.
Human granulosa/luteal cells were plated on lab tek slides and cultured for three days as previously described. […] After culture the cells were raised in Krebs/Hepes buffer and stained to detect apoptotic nuclei as taught by Engmann et al., J. of Clinical Endocrinology and Metabolism 91(12): 4962-4968 (2006). One hundred cells in each chamber were counted and the percentage of apoptotic nuclei determined as previously described.

PGRMC1 = PGRMC1 mRNA and protein levels in Ovcar-3 cells after siRNA (real-time PCR, western blot, immunocytochemistry); type: cell-based, human; conditions: 72 h treatment; vs scramble control
Description: Real Time PCR. Quantitative measurements of PGR and PGRMC1 mRNA were made on cDNA samples provided by OriGene. […] Primers were evaluated with NCBI blast to confirm product specificity and products were designed to cross intron/exon borders. Primers used were: PGR forward [NT] ID NO: 13) and reverse [NT] ID NO: 14) and PGRMC-1 forward [NT] ID NO: 15) and reverse [NT] ID NO: 16). Quantitative real time PCR was performed on the MyiQ Single-Color Real-Time PCR Detection System (Bio-Rad, Hercules, Calif.). Samples were resuspended in twenty-five μl of the iQ SyberGreen Supermix (Bio-Rad) containing appropriate primers. Relative gene expression was evaluated with Bio-Rad iQ5 software using the ΔCT method (24). Each gene was evaluated on two separate identical array plates, which were loaded with equal amounts of cDNA per well as described by the manufacturer. End products were also run on agarose gels to confirm product size. Immunohistochemistry and immunocytochemistry were also used to assess the localization of PGRMC1 in formalin-fixed paraffin-embedded tissue sections of ovarian cancers and Ovcar-3 cells, respectively. […] Levels of PGRMC1 mRNA and protein were assessed by real-time PCR and western blot, respectively as previously described. […]

N.N.[Cl][Pt][Cl] [CDDP, cis-diamminedichloroplatinum(II)]
percentage of cells that undergo apoptosis (dose dependence) (Ovcar-3 cells; 10% fetal bovine serum, FIG. 12B): dose-dependent increase | percentage of cells in which apoptosis is induced (Ovcar-3 cells; in the presence of serum, within 24 h): 40 to 60%

CC#C[C@]1(O)CC[C@H]2[C@@H]3CCC4=CC(=O)CCC4=C3[C@@H](c3ccc(N(C)C)cc3)C[C@@]21C [RU486]
percentage of apoptotic nuclei ([1]; 25 and 50 μM doses of RU486): greater than 70%

CC(=O)[C@H]1CC[C@H]2[C@@H]3CCC4=CC(=O)CC[C@]4(C)[C@H]3CC[C@]12C [progesterone, 4-Pregnene-3,20-dione]
effect on apoptosis due to serum-withdrawal in presence of IgG or IgY ([1]; 1 μM progesterone, IgG or IgY control): suppressed apoptosis | effect on apoptosis due to serum withdrawal ([1]; all doses tested): suppressed apoptosis | suppression of serum-withdrawal induced apoptosis in presence of RU486 ([1]; progesterone 1 μM, RU486 5 μM): still capable of suppressing serum-withdrawal induced apoptosis | ability to override the effect of RU486 ([1]; progesterone 1 μM, RU486 25 and 50 μM): could not override the effect of RU486 | lowest effective dose suppressing apoptosis ([1]; serum-free medium): 10 nM | reduction of the killing effect of CDDP (Ovcar-3 cells; addition of P4 to CDDP in serum): about 40% | concentration of maximum effect on inhibition of apoptosis induced by serum withdrawal (Ovcar-3 cells; serum withdrawal): ~1 µM | effect on rate of apoptosis in serum-free media (Ovcar-3 cells; serum-free media for 5 h, p<0.05): attenuated | effect on CDDP-induced apoptosis (Ovcar-3 cells; 5 h of culture, p<0.05): attenuated | effect on CDDP-induced apoptosis (Ovcar-3 cells; 24 h of culture, p<0.05): attenuated

PGRMC1 siRNA (ID#: 18248): Ambion human PGRMC1 siRNA targeting Exon 1, nucleotides 365-386; SEQ ID NO: 7 and 8 (chain 1 GGUGUUCGAUGUGACCAAATT; chain 2 UUUGGUCACAUCGAACACCTT; chemistry not given here)
enhancement of the killing effect of CDDP in the presence of P4 (Ovcar-3 cells; PGRMC1 depleted with siRNA, CDDP and P4): ≥ 50% | effect on P4's ability to inhibit CDDP-induced apoptosis (Ovcar-3 cells; siRNA 3 days, then 24 h CDDP (15 μM) and P4 (1 μM), p<0.05): attenuated | PGRMC1 levels by immunocytochemical analysis (PGRMC1): suppress PGRMC1 levels
